Assay results: patent US12286424B2, “Small molecule inhibitors of galectin-3” (BRISTOL-MYERS SQUIBB COMPANY, priority 2020, dated 2025)

Biological target: T1, hGalectin-3 (Homo sapiens, UniProt P17931)
T1 construct: made in house
Test: Gal-3 ELISA assay (hGalectin-3 neutralization binding to asialofetuin)
Conditions: Table 1; read-out: hGal-3 IC50

T1 sequence (P17931 whole entry): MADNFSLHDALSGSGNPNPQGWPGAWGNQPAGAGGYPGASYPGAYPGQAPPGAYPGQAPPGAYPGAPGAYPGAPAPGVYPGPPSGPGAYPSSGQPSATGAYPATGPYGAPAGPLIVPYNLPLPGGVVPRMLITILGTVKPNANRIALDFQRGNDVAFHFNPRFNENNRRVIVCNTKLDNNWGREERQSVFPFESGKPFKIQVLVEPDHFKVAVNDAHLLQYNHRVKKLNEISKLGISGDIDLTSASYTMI

IC50 [nM] | Structure (SMILES)
395 | O=C([C@@H]1O[C@H](CO)[C@H](O)[C@H](n2cc(-c3cccc(F)c3)nn2)[C@H]1O)N1CCN(c2ccc(O)cn2)CC1 [Example 2]
480 | O=C([C@@H]1O[C@H](CO)[C@H](O)[C@H](n2cc(-c3cccc(F)c3)nn2)[C@H]1O)N1CCN(c2ccc3[nH]ccc3c2)CC1 [Example 3]
850 | O=C([C@@H]1O[C@H](CO)[C@H](O)[C@H](n2cc(-c3cccc(F)c3)nn2)[C@H]1O)N1CCN(c2ncc(O)cn2)CC1 [Example 4]
360 | COc1cc(N2CCN(C(=O)[C@@H]3O[C@H](CO)[C@H](O)[C@H](n4cc(-c5cccc(F)c5)nn4)[C@H]3O)CC2)ccc1O [Example 5]
420 | Cn1ccc2cc(N3CCN(C(=O)[C@@H]4O[C@H](CO)[C@H](O)[C@H](n5cc(-c6cccc(F)c6)nn5)[C@H]4O)CC3)ccc21 [Example 6]

Same assay, conditions: Table 2; read-out: hGal-3 IC50

IC50 [nM] | Structure (SMILES)
410 | CO[C@@H]1[C@@H](n2cc(-c3cccc(F)c3)nn2)[C@@H](O)[C@@H](CO)O[C@H]1C(=O)N1CCN(c2ccc3c(ccn3C)c2)CC1 [Example 14]
530 | COc1ccc(N2C[C@H]3C[C@@H]2CN3C(=O)[C@@H]2O[C@H](CO)[C@H](O)[C@H](n3cc(-c4cccc(F)c4)nn3)[C@H]2OC)cc1 [Example 16]
311 | CO[C@@H]1[C@@H](n2cc(-c3cccc(F)c3)nn2)[C@@H](O)[C@@H](CO)O[C@H]1C(=O)N1C[C@H]2C[C@@H]1CN2c1ccc2c(c1)OCO2 [Example 17]

Same assay, conditions: Table 3; read-out: hGal-3 IC50

IC50 [nM] | Structure (SMILES)
249 | O=C([C@@H]1O[C@H](CO)[C@H](O)[C@H](n2cc(-c3cccc(F)c3)nn2)[C@H]1O)N1C[C@@H]2C[C@H]1CN2c1ccc2c(c1)OCO2 [Example 20]
962 | COc1ccc(OC)c(N2CC3CC2CN3C(=O)C2OC(CO)C(O)C(n3cc(-c4cccc(F)c4)nn3)C2O)c1 (centres unmarked) [Example 21]
522 | COc1ccc(N2CC3CC2CN3C(=O)C2OC(CO)C(O)C(n3cc(-c4cccc(F)c4)nn3)C2O)cc1OC (centres unmarked) [Example 22]

Same assay, conditions: biotin-tagged hGalectin-3 15 nM, ASF-coated plate; read-out: hGal3 IC50

Structure (SMILES) | IC50 [nM]
CC1CN(c2ccc(O)cc2)CCN1C(=O)[C@@H]1O[C@H](CO)[C@H](O)[C@H](n2cc(-c3cccc(F)c3)nn2)[C@H]1O (single isomer, unassigned) [Example 36] | 340
COc1ccc(N2CC3CC2CN3C(=O)[C@@H]2O[C@H](CO)[C@H](O)[C@H](n3cc(-c4cccc(F)c4)nn3)[C@H]2O)cc1 (stereo in doubt) [Example 31, ((2R,3R,4S,5R,6R)-4-(4-(3-fluorophenyl)-1H-1,2,3-triazol-1-yl)-3,5-dihydroxy-6-(hydroxymethyl)tetrahydro-2H-pyran-2-yl)((1S,4S)-5-(4-methoxyphenyl)-2,5-diazabicyclo[2.2.1]heptan-2-yl)methanone] | 220
O=C([C@@H]1O[C@H](CO)[C@H](O)[C@H](n2cc(-c3cccc(F)c3)nn2)[C@H]1O)N1CCN(c2ccc(O)cc2)CC1 [Example 1, ((2R, 3R, 4S, 5R, 6R)-4-(4-(3-fluorophenyl)-1H-1,2,3-triazol-1-yl)-3,5-dihydroxy-6-(hydroxymethyl)tetrahydro-2H-pyran-2-yl)(4-(4-hydroxyphenyl)piperazin-1-yl) methanone] | 350
O=C([C@@H]1O[C@H](CO)[C@H](O)[C@H](n2cc(-c3cccc(F)c3)nn2)[C@H]1O)N1CCN(c2ccc(O)cn2)CC1 [Example 2] | 270
CS(=O)(=O)Nc1ccc(N2CCN(C(=O)[C@@H]3O[C@H](CO)[C@H](O)[C@H](n4cc(-c5cccc(F)c5)nn4)[C@H]3O)CC2)nc1 [Example 8, N-(6-(4-((2R,3R,4S,5R,6R)-4-(4-(3-fluorophenyl)-1H-1,2,3-triazol-1-yl)-3,5-dihydroxy-6-(hydroxymethyl)tetrahydro-2H-pyran-2-carbonyl)piperazin-1-yl)pyridin-3-yl)methanesulfonamide] | 760
O=C([C@@H]1O[C@H](CO)[C@H](O)[C@H](n2cc(-c3cccc(F)c3)nn2)[C@H]1O)N1CCN(c2ccc3[nH]c(=O)[nH]c3c2)CC1 [Example 9, 5-(4-((2R,3R,4S,5R,6R)-4-(4-(3-fluorophenyl)-1H-1,2,3-triazol-1-yl)-3,5-dihydroxy-6-(hydroxymethyl)tetrahydro-2H-pyran-2-carbonyl)piperazin-1-yl)-1H-benzo[d]imidazol-2(3H)-one] | 390
COc1ccc(N2CCN(C(=O)[C@@H]3O[C@H](CO)[C@H](O)[C@H](n4cc(-c5cccc(F)c5)nn4)[C@H]3OC)CC2)cc1 [Example 11, ((2R, 3R, 4S, 5R, 6R)-4-(4-(3-fluorophenyl)-1H-1,2,3-triazol-1-yl)-5-hydroxy-6-(hydroxymethyl)-3-methoxytetrahydro-2H-pyran-2-yl)(4-(4-methoxyphenyl)piperazin-1-yl) methanone] | 300
CO[C@@H]1[C@@H](n2cc(-c3cccc(F)c3)nn2)[C@@H](O)[C@@H](CO)O[C@H]1C(=O)N1CCN(c2ccc(O)cn2)CC1 [Example 12, ((2R, 3R, 4S, 5R, 6R)-4-(4-(3-fluorophenyl)-1H-1,2,3-triazol-1-yl)-5-hydroxy-6-(hydroxymethyl)-3-methoxytetrahydro-2H-pyran-2-yl)(4-(5-hydroxypyridin-2-yl)piperazin-1-yl) methanone] | 470
CO[C@@H]1[C@@H](n2cc(-c3cccc(F)c3)nn2)[C@@H](O)[C@@H](CO)O[C@H]1C(=O)N1CCN(c2ccc(O)cc2)CC1 [Example 13, ((2R,3R,4S,5R,6R)-4-(4-(3-fluorophenyl)-1H-1,2,3-triazol-1-yl)-5-hydroxy-6-(hydroxymethyl)-3-methoxytetrahydro-2H-pyran-2-yl)(4-(4-hydroxyphenyl)piperazin-1-yl)methanone] | 150
O=C(Nc1ccc(O)cc1)N1CCN(C(=O)[C@@H]2O[C@H](CO)[C@H](O)[C@H](n3cc(-c4cccc(F)c4)nn3)[C@H]2O)CC1 [Example 18, 4-((2R,3R,4S,5R,6R)-4-(4-(3-fluorophenyl)-1H-1,2,3-triazol-1-yl)-3,5-dihydroxy-6-(hydroxymethyl)tetrahydro-2H-pyran-2-carbonyl)-N-(4-hydroxyphenyl)piperazine-1-carboxamide] | 250
COc1ccc(N2C[C@@H]3C[C@H]2CN3C(=O)[C@@H]2O[C@H](CO)[C@H](O)[C@H](n3cc(-c4cccc(F)c4)nn3)[C@H]2O)cc1 [Example 19, ((2R,3R,4S,5R,6R)-4-(4-(3-fluorophenyl)-1H-1,2,3-triazol-1-yl)-3,5-dihydroxy-6-(hydroxymethyl)tetrahydro-2H-pyran-2-yl)((1S,4S)-5-(4-methoxyphenyl)-2,5-diazabicyclo[2.2.1]heptan-2-yl)methanone] | 250
COC(=O)Nc1ccc(N2C[C@@H]3C[C@H]2CN3C(=O)[C@@H]2O[C@H](CO)[C@H](O)[C@H](n3cc(-c4cccc(F)c4)nn3)[C@H]2O)cc1 [Example 23, methyl (4-((1S,4S)-5-((2R,3R,4S,5R,6R)-4-(4-(3-fluorophenyl)-1H-1,2,3-triazol-1-yl)-3,5-dihydroxy-6-(hydroxymethyl)tetrahydro-2H-pyran-2-carbonyl)-2,5-diazabicyclo[2.2.1]heptan-2-yl)phenyl)carbamate] | 590
CS(=O)(=O)Nc1ccc(N2C[C@@H]3C[C@H]2CN3C(=O)[C@@H]2O[C@H](CO)[C@H](O)[C@H](n3cc(-c4cccc(F)c4)nn3)[C@H]2O)cc1 [Example 24, N-(4-((1S,4S)-5-((2R,3R,4S,5R,6R)-4-(4-(3-fluorophenyl)-1H-1,2,3-triazol-1-yl)-3,5-dihydroxy-6-(hydroxymethyl)tetrahydro-2H-pyran-2-carbonyl)-2,5-diazabicyclo[2.2.1]heptan-2-yl)phenyl)methanesulfonamide] | 680
O=C([C@@H]1O[C@H](CO)[C@H](O)[C@H](n2cc(-c3cccc(F)c3)nn2)[C@H]1O)N1C[C@@H]2C[C@H]1CN2c1ccc(O)cc1 [Example 25, ((2R,3R,4S,5R,6R)-4-(4-(3-fluorophenyl)-1H-1,2,3-triazol-1-yl)-3,5-dihydroxy-6-(hydroxymethyl)tetrahydro-2H-pyran-2-yl)((1S,4S)-5-(4-hydroxyphenyl)-2,5-diazabicyclo[2.2.1]heptan-2-yl)methanone] | 900

Second part, the compound after the results:

IC50 [nM] | Structure (SMILES)
1300 | O=C([C@@H]1O[C@H](CO)[C@H](O)[C@H](n2cc(-c3cccc(F)c3)nn2)[C@H]1O)N1CCN(c2ccc(O)cc2)CC1CO (single isomer, unassigned) [Example 34a]
450 | O=C([C@@H]1O[C@H](CO)[C@H](O)[C@H](n2cc(-c3cccc(F)c3)nn2)[C@H]1O)N1CCN(c2ccc(O)cc2)CC1CO (single isomer, unassigned) [Example 34b]
1100 | O=C([C@@H]1O[C@H](CO)[C@H](O)[C@H](n2cc(-c3cccc(F)c3)nn2)[C@H]1O)N1CCN(c2ccc(O)cc2)C(CO)C1 (single isomer, unassigned) [Example 35a]
140 | O=C([C@@H]1O[C@H](CO)[C@H](O)[C@H](n2cc(-c3cccc(F)c3)nn2)[C@H]1O)N1CCN(c2ccc(O)cc2)C(CO)C1 (single isomer, unassigned) [Example 35b]
350 | C[C@@H]1CN(c2ccc(O)cc2)[C@@H](C)CN1C(=O)[C@@H]1O[C@H](CO)[C@H](O)[C@H](n2cc(-c3cccc(F)c3)nn2)[C@H]1O (single isomer, unassigned) [Example 37a]
310 | C[C@@H]1CN(c2ccc(O)cc2)[C@@H](C)CN1C(=O)[C@@H]1O[C@H](CO)[C@H](O)[C@H](n2cc(-c3cccc(F)c3)nn2)[C@H]1O (single isomer, unassigned) [Example 37b]
310 | OCC1CN(c2ccc(O)cc2)CCN1C[C@@H]1O[C@H](CO)[C@H](O)[C@H](n2cc(-c3cccc(F)c3)nn2)[C@H]1O (single isomer, unassigned) [Example 39a]
390 | OCC1CN(c2ccc(O)cc2)CCN1C[C@@H]1O[C@H](CO)[C@H](O)[C@H](n2cc(-c3cccc(F)c3)nn2)[C@H]1O (single isomer, unassigned) [Example 39b]
940 | OCC1CN(C[C@@H]2O[C@H](CO)[C@H](O)[C@H](n3cc(-c4cccc(F)c4)nn3)[C@H]2O)CCN1c1ccc(O)cc1 (single isomer, unassigned) [Example 40a]
1600 | OCC1CN(C[C@@H]2O[C@H](CO)[C@H](O)[C@H](n3cc(-c4cccc(F)c4)nn3)[C@H]2O)CCN1c1ccc(O)cc1 (single isomer, unassigned) [Example 40b]
